Where two headings read alike, the source gives them in different places. Starred links: 1 amine or outer side, 2 acyl side, 3 side chain; linkers in the order of their positions; H or OH if unused. Non-standard residues stand in square brackets, D forms with d. Groups on a side chain read outwards from the residue. *: point of attachment. C18 diacid = O=C(O)CCCCCCCCCCCCCCCCC(=O)*; αMePhe(2-F) = C[C@](N)(Cc1ccccc1F)C(=O)O; γGlu = O=C(O)[C@H](CCC(=O)[*:2])N[*:1]; αMe4Pal = C[C@](N)(Cc1ccncc1)C(=O)O; αMeY = C[C@](N)(Cc1ccc(O)cc1)C(=O)O; 4Pal = N[C@@H](Cc1ccncc1)C(=O)O; αMeL = CC(C)C[C@](C)(N)C(=O)O; αMeS = C[C@](N)(CO)C(=O)O; Orn = NCCC[C@H](N)C(=O)O; AEEA = NCCOCCOCC(=O)O; Aib = CC(C)(N)C(=O)O
How the values were obtained:
Format in all cases: cell-based
hGLP-1R [1] = target: T1, hGLP-1R (Homo sapiens, UniProt P43220); assay: Functional cAMP activity in the presence of 1% HSA; settings: read-out: cAMP Rel EC50, hGLP-1R
T1 sequence (P43220 24-463): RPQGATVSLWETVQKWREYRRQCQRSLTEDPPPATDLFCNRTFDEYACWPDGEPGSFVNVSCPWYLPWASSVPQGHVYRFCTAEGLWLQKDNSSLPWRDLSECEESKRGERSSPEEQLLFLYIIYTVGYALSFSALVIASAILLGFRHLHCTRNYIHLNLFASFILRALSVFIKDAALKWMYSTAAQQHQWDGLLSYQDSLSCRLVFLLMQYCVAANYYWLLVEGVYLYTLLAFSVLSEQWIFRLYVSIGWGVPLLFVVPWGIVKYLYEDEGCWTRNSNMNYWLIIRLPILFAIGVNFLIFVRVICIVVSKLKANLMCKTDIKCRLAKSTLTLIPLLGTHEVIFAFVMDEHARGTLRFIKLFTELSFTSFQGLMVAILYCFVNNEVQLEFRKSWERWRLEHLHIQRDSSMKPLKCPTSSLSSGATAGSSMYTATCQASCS

hGLP-1R [2] = target: T1, hGLP-1R; assay: Functional cAMP activation in the presence of 0.1% casein (no HSA); settings: read-out: Relative cAMP EC50, hGLP-1R;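 on Relative cAMP EC50, hGIPR: intracellular cAMP rise after 30 min at 37 °C read by HTRF against a standard curve, scaled between buffer alone (0%) and top control ligand concentration (100%), four-parameter fit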;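 on Relative cAMP EC50, hGLP-1R: intracellular cAMP rise after 30 min at 37 °C read by HTRF, normalized between buffer only (0%) and maximal control ligand (100%), four-parameter variable-slope fit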;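 on Relative cAMP EC50, hGcgR: intracellular cAMP rise after 30 min at 37 °C, read by HTRF against a cAMP standard curve, scaled from buffer only (0%) to maximal control ligand response (100%)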
hGIPR [3] = target: T2, hGIPR (Homo sapiens, UniProt P48546); assay: as above; settings: read-out: Relative cAMP EC50, hGIPR;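 further: intracellular cAMP rise after 30 min at 37 °C read by HTRF against a standard curve, scaled between buffer alone (0%) and top control ligand concentration (100%), four-parameter fit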
T2 sequence (P48546 22-466): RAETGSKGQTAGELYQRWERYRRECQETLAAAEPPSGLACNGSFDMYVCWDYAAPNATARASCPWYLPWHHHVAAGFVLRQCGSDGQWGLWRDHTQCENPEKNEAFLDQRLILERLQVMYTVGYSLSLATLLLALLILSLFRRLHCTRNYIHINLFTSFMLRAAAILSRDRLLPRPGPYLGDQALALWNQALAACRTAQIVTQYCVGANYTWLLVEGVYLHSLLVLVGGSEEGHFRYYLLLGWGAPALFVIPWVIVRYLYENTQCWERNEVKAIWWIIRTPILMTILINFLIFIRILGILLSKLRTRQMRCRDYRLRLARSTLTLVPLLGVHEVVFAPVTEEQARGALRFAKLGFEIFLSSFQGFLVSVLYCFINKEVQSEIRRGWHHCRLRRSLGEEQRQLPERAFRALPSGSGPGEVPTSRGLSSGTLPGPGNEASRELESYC

hGcgR = hGcgR (Homo sapiens, UniProt P47871); assay: as above; settings: read-out: Relative cAMP EC50, hGcgR;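 further: intracellular cAMP rise after 30 min at 37 °C, read by HTRF against a cAMP standard curve, scaled from buffer only (0%) to maximal control ligand response (100%)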
Chain of hGcgR (P47871 26-477): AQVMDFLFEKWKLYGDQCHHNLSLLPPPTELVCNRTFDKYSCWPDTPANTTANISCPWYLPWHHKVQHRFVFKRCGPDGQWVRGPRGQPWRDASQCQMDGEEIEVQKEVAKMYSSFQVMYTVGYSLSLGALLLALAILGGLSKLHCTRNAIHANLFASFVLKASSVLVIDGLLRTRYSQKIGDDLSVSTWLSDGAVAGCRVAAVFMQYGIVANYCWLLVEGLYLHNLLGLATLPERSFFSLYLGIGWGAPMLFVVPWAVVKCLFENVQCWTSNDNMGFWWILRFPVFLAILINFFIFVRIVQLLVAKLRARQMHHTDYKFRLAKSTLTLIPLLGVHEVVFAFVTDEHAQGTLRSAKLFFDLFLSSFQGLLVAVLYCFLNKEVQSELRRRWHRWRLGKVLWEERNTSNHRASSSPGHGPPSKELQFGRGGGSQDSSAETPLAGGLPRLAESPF
Protocol: After a 30-minute incubation at 37° C., the resulting increase in intracellular cAMP is quantitatively determined using the CisBio CAMP Dynamic 2 HTRF Assay Kit (62AM4PEJ). Briefly, cAMP levels within the cell are detected by adding the cAMP-d2 conjugate in cell lysis buffer followed by the antibody anti-cAMP-Eu^3+-Cryptate, also in cell lysis buffer.
Intracellular cAMP levels are determined by extrapolation using a standard curve. Dose response curves of compounds are plotted as the percentage of stimulation normalized to minimum (buffer only) and maximum (maximum concentration of each control ligand) values and analyzed using a four parameter non-linear regression fit with a variable slope (Genedata Screener 13). EC50 is the concentration of compound causing half-maximal simulation in a dose response curve. Each relative EC50 value for the Geometric mean calculation is determined from a curve fitting.

human GcgR = human GcgR (Homo sapiens, UniProt P47871); assay: Functional cAMP activity in the presence of 1% HSA; settings: read-out: cAMP Rel EC50, hGcgR
Chain of human GcgR (P47871 26-477): as above

hGIPR [4] = target: T2, hGIPR; assay: Functional cAMP activity in the presence of 1% HSA; settings: read-out: cAMP Rel EC50, hGIPR
[5] = 0.1% casein, no HSA, geometric mean
[6] = in the presence of 0.1% casein (no HSA), geometric mean

Substance | EC50 (hGLP-1R [1]) | EC50 (hGLP-1R [2]) | EC50 (hGIPR [3]) | EC50 (hGcgR) | EC50 (human GcgR) | EC50 (hGIPR [4]) | EC50 (hGLP-1R [2]; [5]) | EC50 (hGIPR [3]; [5]) | EC50 (hGcgR; [5]) | EC50 (hGLP-1R [2]; [6]) | EC50 (hGIPR [3]; [6]) | EC50 (hGcgR; [6])
H-Y[Aib]QGT[αMePhe(2-F)]TSD[4Pal][αMeS]I[αMeL]LD[Orn]K([AEEA-γGlu-C18 diacid])AQ[Aib][Orn]FI[dE][αMeY]LIEGGPSSGEPEPSEG-NH2 [Example 481] | 14.2 nM | 0.204 nM | 0.0164 nM | 1.22 nM | 100 nM | 1.19 nM | – | – | – | – | – | –
H-Y[Aib]QGT[αMePhe(2-F)]TSD[4Pal][αMeS]I[αMeL]LD[Orn]K([AEEA-γGlu-C18 diacid])AQ[Aib][Orn]FI[dE][αMeY]LIEGGPSSGEPPPEGE-NH2 [Example 698] | 20.6 nM | 0.252 nM | 0.0112 nM | 1.53 nM | 124 nM | 0.824 nM | – | – | – | – | – | –
H-Y[Aib]QGT[αMePhe(2-F)]TSD[4Pal][αMeS]I[αMeL]LD[Orn]K([AEEA-γGlu-C18 diacid])AQ[Aib][Orn]FI[dE][αMeY]LIEGGPSSGEPPPEGTGE-NH2 [Example 697] | 18.2 nM | 0.235 nM | 0.0109 nM | 1.71 nM | 130 nM | 0.607 nM | – | – | – | – | – | –
H-Y[Aib]QGT[αMePhe(2-F)]TSD[4Pal][αMeS]I[αMeL]LD[Orn]K([AEEA-γGlu-C18 diacid])AQ[αMe4Pal]EFI[dE][αMeY]LIEGGPPSGEPPPEGE-NH2 [Example 1191] | 82.3 nM | – | – | – | 243 nM | 0.931 nM | 0.945 nM | 0.00992 nM | 3.06 nM | – | – | –
H-Y[Aib]QGT[αMePhe(2-F)]TSD[4Pal][αMeS]I[αMeL]LD[Orn]K([AEEA-γGlu-C18 diacid])AQ[αMe4Pal]EFI[dE][αMeY]LIEGGPPS[Aib]EPPPSGGGE-NH2 [Example 1201] | 93.9 nM | – | – | – | 234 nM | 1.02 nM | 0.888 nM | 0.00959 nM | 1.76 nM | – | – | –
H-Y[Aib]QGT[αMePhe(2-F)]TSD[4Pal][αMeS]I[αMeL]LD[Orn]K([AEEA-γGlu-C18 diacid])AQ[αMe4Pal]EFI[dE][αMeY]LIEGGPPS[Aib]EPPPSGSE-NH2 [Example 1200] | 91.4 nM | – | – | – | 278 nM | 0.896 nM | 0.727 nM | 0.00883 nM | 1.5 nM | – | – | –
H-Y[Aib]QGT[αMePhe(2-F)]TSD[4Pal][αMeS]I[αMeL]LD[Orn]K([AEEA-γGlu-C18 diacid])AQ[αMe4Pal]EFI[dE][αMeY]LIEGGPPS[Aib][Orn]PPPEGE-NH2 [Example 1194] | 57.4 nM | – | – | – | 215 nM | 0.759 nM | 0.51 nM | 0.00725 nM | 2.02 nM | – | – | –
H-Y[Aib]QGT[αMePhe(2-F)]TSD[4Pal][αMeS]I[αMeL]LD[Orn]K([AEEA-γGlu-C18 diacid])AQ[αMe4Pal]EFI[dE][αMeY]LIEGGPPS[Aib][Orn]PPPSGGGE-NH2 [Example 1199] | 63.9 nM | – | – | – | 352 nM | 0.733 nM | 0.5 nM | 0.0076 nM | 2.05 nM | – | – | –
H-Y[Aib]QGT[αMePhe(2-F)]TSD[4Pal][αMeS]I[αMeL]LD[Orn]K([AEEA-γGlu-C18 diacid])AQ[αMe4Pal]EFI[dE][αMeY]LIEGGPPS[Aib][Orn]PPP[Orn]GE-NH2 [Example 1195] | 44.2 nM | – | – | – | 242 nM | 0.637 nM | 0.367 nM | 0.00708 nM | 1.74 nM | – | – | –
H-Y[Aib]QGT[αMePhe(2-F)]TSD[4Pal][αMeS]I[αMeL]LD[Orn]K([AEEA-γGlu-C18 diacid])AQ[αMe4Pal]EFI[dE][αMeY]LIEGGPPS[Aib][Orn]PPP[Orn]GGGE-NH2 [Example 1197] | 46.1 nM | – | – | – | 288 nM | 0.639 nM | 0.407 nM | 0.00666 nM | 1.88 nM | – | – | –
H-Y[Aib]QGT[αMePhe(2-F)]TSD[4Pal][αMeS]I[αMeL]LD[Orn]K([AEEA-γGlu-C18 diacid])AQ[αMe4Pal]EFI[dE][αMeY]LIEGGPPS[Aib][Orn]PPP[Orn]GS-NH2 [Example 1189] | 45.4 nM | – | – | – | 248 nM | 0.584 nM | – | – | – | 0.292 nM | 0.00597 nM | 1.59 nM
H-Y[Aib]QGT[αMePhe(2-F)]TSD[4Pal][αMeS]I[αMeL]LD[Orn]K([AEEA-γGlu-C18 diacid])AQ[αMe4Pal]EFI[dE][αMeY]LIEGGPSSGAPPPEGE-NH2 [Example 1148] | 44.3 nM | – | – | – | 175 nM | 0.873 nM | – | – | – | 0.299 nM | 0.00801 nM | 1.6 nM
H-Y[Aib]QGT[αMePhe(2-F)]TSD[4Pal][αMeS]I[αMeL]LD[Orn]K([AEEA-γGlu-C18 diacid])AQ[αMe4Pal]EFI[dE][αMeY]LIEGGPSSGAPPPEGGGE-NH2 [Example 759] | 34.8 nM | 0.262 nM | 0.00676 nM | 1.29 nM | 223 nM | 1.05 nM | – | – | – | – | – | –
H-Y[Aib]QGT[αMePhe(2-F)]TSD[4Pal][αMeS]I[αMeL]LD[Orn]K([AEEA-γGlu-C18 diacid])AQ[αMe4Pal]EFI[dE][αMeY]LIEGGPSSGAPPPEGGGEE-NH2 [Example 1216] | 66.9 nM | – | – | – | 225 nM | 0.914 nM | 0.65 nM | 0.00921 nM | 1.83 nM | – | – | –
H-Y[Aib]QGT[αMePhe(2-F)]TSD[4Pal][αMeS]I[αMeL]LD[Orn]K([AEEA-γGlu-C18 diacid])AQ[αMe4Pal]EFI[dE][αMeY]LIEGGPSSGAPPPEGGGEEE-NH2 [Example 1217] | 62.7 nM | – | – | – | 253 nM | 1.06 nM | 0.751 nM | 0.0101 nM | 1.98 nM | – | – | –
H-Y[Aib]QGT[αMePhe(2-F)]TSD[4Pal][αMeS]I[αMeL]LD[Orn]K([AEEA-γGlu-C18 diacid])AQ[αMe4Pal]EFI[dE][αMeY]LIEGGPSSGAPPPGGE-NH2 [Example 1144] | 36.5 nM | – | – | – | 196 nM | 0.72 nM | – | – | – | 0.282 nM | 0.00649 nM | 1.32 nM
H-Y[Aib]QGT[αMePhe(2-F)]TSD[4Pal][αMeS]I[αMeL]LD[Orn]K([AEEA-γGlu-C18 diacid])AQ[αMe4Pal]EFI[dE][αMeY]LIEGGPSSGAPPPSGE-NH2 [Example 1140] | 39.2 nM | – | – | – | 228 nM | 0.869 nM | – | – | – | 0.323 nM | 0.00821 nM | 1.56 nM
H-Y[Aib]QGT[αMePhe(2-F)]TSD[4Pal][αMeS]I[αMeL]LD[Orn]K([AEEA-γGlu-C18 diacid])AQ[αMe4Pal]EFI[dE][αMeY]LIEGGPSSGAPPPSGGGEE-NH2 [Example 1214] | 50 nM | – | – | – | 210 nM | 0.771 nM | 0.55 nM | 0.00851 nM | 1.85 nM | – | – | –
H-Y[Aib]QGT[αMePhe(2-F)]TSD[4Pal][αMeS]I[αMeL]LD[Orn]K([AEEA-γGlu-C18 diacid])AQ[αMe4Pal]EFI[dE][αMeY]LIEGGPSSGAPPPSGGGEEE-NH2 [Example 1215] | 58.5 nM | – | – | – | 272 nM | 0.937 nM | 0.668 nM | 0.0106 nM | 2.09 nM | – | – | –
H-Y[Aib]QGT[αMePhe(2-F)]TSD[4Pal][αMeS]I[αMeL]LD[Orn]K([AEEA-γGlu-C18 diacid])AQ[αMe4Pal]EFI[dE][αMeY]LIEGGPSSGAPPPSGSEE-NH2 [Example 713] | 37.7 nM | 0.331 nM | 0.00928 nM | 1.71 nM | 180 nM | 0.879 nM | – | – | – | – | – | –
H-Y[Aib]QGT[αMePhe(2-F)]TSD[4Pal][αMeS]I[αMeL]LD[Orn]K([AEEA-γGlu-C18 diacid])AQ[αMe4Pal]EFI[dE][αMeY]LIEGGPSSGAPPPTGE-NH2 [Example 1142] | 38 nM | – | – | – | 203 nM | 0.748 nM | – | – | – | 0.329 nM | 0.00706 nM | 1.34 nM
H-Y[Aib]QGT[αMePhe(2-F)]TSD[4Pal][αMeS]I[αMeL]LD[Orn]K([AEEA-γGlu-C18 diacid])AQ[αMe4Pal]EFI[dE][αMeY]LIEGGPSSGEPPPEGE-NH2 [Example 1149] | 52.2 nM | – | – | – | 184 nM | 0.96 nM | – | – | – | 0.352 nM | 0.00804 nM | 1.37 nM
H-Y[Aib]QGT[αMePhe(2-F)]TSD[4Pal][αMeS]I[αMeL]LD[Orn]K([AEEA-γGlu-C18 diacid])AQ[αMe4Pal]EFI[dE][αMeY]LIEGGPSSGEPPPEGGGE-NH2 [Example 760] | 43.6 nM | 0.395 nM | 0.00722 nM | 1.59 nM | 239 nM | 1.29 nM | – | – | – | – | – | –
